Key:
[1] = tested on: seven RB-positive patient derived WD/DDLS cell lines; test: BrdU incorporation in liposarcoma cell lines; type: cell-based, human; settings: asynchronously growing cells, 48 hours
Method: FIG. 1A-C. […] Mean percentage of BrdU incorporation or annexin V+/7-AAD− cells was calculated from three or more independent experiments. Error bars represent standard deviation (*p<0.05).
Cell lines were developed from WD/DDLS tumors resected from surgical patients after obtaining informed consent. LS8817 and LS0082 have previously been described using the nomenclature DDLS8817 and WD0082. DNA was extracted from cell lines using standard protocols (QIAGEN DNEasy) and lineage confirmed by copy number array to confirm amplification of segment 12q13-15 (Agilent 244K according to manufacturer's specifications). Analysis of comparative genomic hybridization data was performed using a custom pipeline, which conducts the standard circular binary segmentation from the R/bioconductor DNA copy library and processes all samples with the RAE algorithm (47). […]
shRNA were delivered in the pLKO.1 vector (Sigma) and infected cells selected using puromycin (1 μg/ml); infection with a virus carrying a scramble control ([…]) was used as a control in all experiments utilizing shRNA. […] G0 content was determined by staining with propidium iodine and FACS analyses (49).
Cells were stained with BrdU (20 μM for two hours) or annexin V as previously described (22, 48). […] was determined by staining with propidium iodine and FACS analyses (49).

[2] = tested on: LS8107, LS7785-10, LS7785-1 and LS8313 cells; test: SA-β-gal and SAHF (HP1γ) senescence staining, non-responder lines; type: cell-based, human; settings: LS7785-1, LS7785-10, LS8107 and LS8313; even at ten-fold increased concentration
Excerpt: Mean percentage standard deviation). […] (A) Senescence-associated β-galactosidase and (B) HP1γ staining for senescence associated heterochromatic foci (SAHF) formation was quantitated for three or more independent experiments for each cell line. […] Representative phase contrast micrographs of cells stained for SA-β-gal or immunofluorescence staining for HP1γ in two of the cell lines before (ctrl) and after (PD) drug treatment are shown in the insets of FIGS. 2A and 2B, respectively. (C) BrdU incorporation. […] Error bars represent the standard deviation of the mean calculated from three independent trials. […] Cell number was quantitated by DAPI staining and β-galactosidase staining quantitated as a proportion of total cells. Senescence associated heterochromatic foci were quantitated after cells were fixed with 4% paraformaldehyde, permeabilized with 0.1% Triton, blocked with 2% FBS, and stained with antibodies against HP1γ (1:5000 dilution, 2MOD-1G6 Millipore). Senescent cells were identified by immunofluorescence after treatment of slides with anti-mouse secondary antibodies and quantitation of focal SAHF as a percent of total cells (Leica Upright Confocal SP5 confocal microscope). […] Cell area was measured by with Metamorph software to calculate relative area per cell.

[3] = tested on: E2F7 in WD/DDLS cell lines; test: E2F7 levels by immunoblot; type: cell-based, human; settings: 48 hours
Excerpt: FIG. 24. […] Tubulin is a loading control. This experiment was repeated at least twice for each cell line.

[4] = tested on: LS8817 cells; test: PD0332991 induced senescence after knock down of p53 or INK4A products; type: cell-based, human
Method: LS8817 cells were infected with lentiviruses expressing either a scrambled (shSCR) or two independent p53 targeting (shp53a and shp53d2) shRNAs. […] The accumulation of senescence associated β-galactosidase (top), and the expression of MDM2 and p53 were determined by immunoblot (bottom). Coomassie staining of the gel indicated equivalent loading.

[5] = tested on: Glioma (U87MG, U251, SNB19, DBTRG-05MG) and breast cancer (MDA453, T47D, ZR-75-1, and MCF7) cells; test: SA-β-gal senescence in glioma and breast cancer cell lines; type: cell-based; settings: eight cell lines, some p53 and/or INK4 mutant
Excerpt: (§1) FIG. 19A-C. Senescence associated with the downregulation of MDM2 is p53 and INK4 independent. […] This experiment was repeated three times with similar results in both LS8817 and LS141. […] The p53 mutational status of these cell lines (WT, wild type; R273H and L194F, missense mutations; if-DEL, in-frame deletion of 30 nucleotides at amino acid 368) were obtained from the p53 mutation database and the RIKEN bioresource databank and is consistent with the detection of p21 by immunoblot. (C) SNB19 cells, a p53 mutant and INK4A deficient cell, was transduced with the mutants described in panel A and their effect on senescence determined.
Cells were plated at a concentration of 25,000 per well in a 4-well chamber slides (Lab-Tek) and treated for seven days with drug and stained for senescence-associated β-galactosidase (Cell Signaling kit #9860). Cell number was quantitated by DAPI staining and β-galactosidase staining quantitated as a proportion of total cells.

[6] = tested on: MDM2 in glioma (U87MG, U251, SNB19, DBTRG-05MG) and breast cancer (MDA453, T47D, ZR-75-1, and MCF7) cells; test: MDM2 levels in glioma and breast cancer cell lines; type: cell-based; settings: eight glioma and breast cancer cell lines
Excerpt: as §1
Antibodies against CDK4 (3F121), MDM2 (SMP-14), total RB (IFS), Cyclin A (H432), p16 (C20), and p53 (Bp53-12), were obtained from Santa Cruz Biotechnology, phospho-Rb 780 (#9307) from Cell Signalling, and ARF (3642) from Abeam. Treated cells were lysed with buffer composed of 50 mM Tris-HCl, pH7.4, 250 mM NaCl, 5 mM EDTA, 0.5% NP40, 2 mM PMSF, and supplemented with protease inhibitors. Eighty micrograms of protein were resolved by SDS-PAGE and transferred to PVDF membranes. Membranes were incubated overnight with antibodies (1:1000).

[7] = tested on: WD/DDLS; settings: cited from earlier work

For `CC(=O)c1c(C)c2cnc(Nc3ccc(N4CCNCC4)cn3)nc2n(C2CCCC2)c1=O` [PD0332991], the “incorporation of bromodeoxyuridine (BrdU)” value [1] was “significant reduction”, the “number of SA-β-gal or SAHF positive cells” value [2] was “no increase” and the E2F7 protein amount ([3]; LS8107) was “did not change”. The E2F7 protein ([3]; LS8817, LS0082 and LS8313) was “induced accumulation”, the PD0332991 induced senescence ([4]; p16 and Arf knocked down) was “not affected” and the SA-β-gal positive cells ([4]; p53 deficient cells (two independent shRNAs)) was “still accumulated”. The “senescence as measured by accumulation of SA-β-gal” value [5] was “All of the cell lines underwent senescence”, the MDM2 levels [6] was “decreased” and the “patients with prolonged stable disease” value ([7]; 30 WD/DDLS patients) was 66%. For the same compound, the “time at which one patient achieved a RECIST partial response” value ([7]; one patient) was 74 weeks, the myelosuppression ([7]; patients) was “common” and the tolerability ([7]; patients) was “generally well-tolerated”. The “decrease in tumor size” value ([7]; three other patients, favorable response that did not meet RECIST) was “at least 10%”.

From patent US9889135B2, “Companion diagnostic for CDK4 inhibitors” (Memorial Sloan-Kettering Cancer Center, priority 2013, dated 2018)
